Experimental data: ChEMBL document CHEMBL4219178, “Synthesis of (aminoalkyl)cycleanine analogues: cytotoxicity, cellular uptake, and apoptosis induction in ovarian cancer cells” (Bioorg Med Chem Lett, 2018)
The source made the active and inactive calls. No cut-off for these calls is given here.

Tests used:
[1] = Cytotoxicity against human ovarian epithelial cells assessed as reduction in cell viability after 72 hrs by SRB assay; type: cell-based
[2] = system: A2780; assay: Antiproliferative activity against human A2780 cells after 72 hrs by SRB assay; type: functional, cell-based; details: A2780, 72 h
[3] = Selectivity index, ratio of IC50 for human ovarian epithelial cells to IC50 for human IGROV1 cells; type: toxicity; details: human ovarian epithelial cells versus IGROV1 cells, read-out: Ratio IC50
[4] = Selectivity index, ratio of IC50 for human ovarian epithelial cells to IC50 for human A2780 cells; type: toxicity; details: human ovarian epithelial cells versus A2780 cells, read-out: Ratio IC50
[5] = system: IGROV-1; assay: Antiproliferative activity against human IGROV1 cells after 72 hrs by SRB assay; type: functional, cell-based; details: IGROV-1, 72 h
[6] = Selectivity index, ratio of IC50 for human ovarian epithelial cells to IC50 for human OVCAR8 cells; type: toxicity; details: human ovarian epithelial cells versus OVCAR8 cells, read-out: Ratio IC50
[7] = system: OVCAR-8; assay: Antiproliferative activity against human OVCAR8 cells after 72 hrs by SRB assay; type: functional, cell-based; details: OVCAR-8, 72 h
[8] = Drug uptake in human OVCAR8 cells at 20 uM after 48 hrs by Alexa 488 azide dye-based confocal fluorescence microscopy; type: ADME, cell-based; details: ovcar-8, 48 h
[9] = system: OVCAR-8; assay: Induction of apoptosis in human OVCAR8 cells assessed as viable cells at 20 uM after 48 hrs by Annexin V-FITC/propidium iodide based flow cytometry (reference value: 84%); type: functional; details: OVCAR-8, 48 h, read-out: Activity
[10] = system: OVCAR-8; assay: Induction of apoptosis in human OVCAR8 cells assessed as induction of caspase 3/7 activity at 20 uM incubated for 48 hrs by caspase-Glo 3/7 reagent based luminescence assay; type: functional, cell-based
[11] = system: OVCAR-8; assay: Induction of apoptosis in human OVCAR8 cells assessed as cell shrinkage at 10 to 20 uM incubated for 24 to 48 hrs by phase contrast light microscopy; type: functional, cell-based
[12] = system: OVCAR-8; assay: Induction of apoptosis in human OVCAR8 cells assessed as nucleus condensation at 10 to 20 uM incubated for 24 to 48 hrs by phase contrast light microscopy; type: functional, cell-based
[13] = system: OVCAR-8; assay: Induction of apoptosis in human OVCAR8 cells assessed as early apoptotic cells at 20 uM after 48 hrs by Annexin V-FITC/propidium iodide based flow cytometry (reference value: 4%); type: functional
[14] = system: OVCAR-8; assay: Cell cycle arrest in human OVCAR8 cells assessed as accumulation at subG1 phase at 20 uM after 48 hrs by propidium iodide based flow cytometry; type: functional
[15] = system: IGROV-1; assay: Induction of apoptosis in human IGROV1 cells assessed as induction of caspase 3/7 activity at 20 uM incubated for 48 hrs by caspase-Glo 3/7 reagent based luminescence assay; type: functional, cell-based
[16] = system: OVCAR-8; assay: Induction of apoptosis in human OVCAR8 cells assessed as induction of PARP-1 cleavage at 20 uM after 48 hrs by Western blot; type: functional, cell-based
[17] = system: OVCAR-8; assay: Induction of apoptosis in human OVCAR8 cells assessed as cell detachment at 10 to 20 uM incubated for 24 to 48 hrs by phase contrast light microscopy; type: functional, cell-based
[18] = system: OVCAR-8; assay: Induction of apoptosis in human OVCAR8 cells assessed as late apoptotic cells at 20 uM after 48 hrs by Annexin V-FITC/propidium iodide based flow cytometry (reference value: 5%); type: functional
[19] = system: OVCAR-8; assay: Cell cycle arrest in human OVCAR8 cells assessed as decrease in G0/G1 phase at 20 uM after 48 hrs by propidium iodide based flow cytometry; type: functional
[20] = system: A2780; assay: Induction of apoptosis in human A2780 cells assessed as induction of caspase 3/7 activity at 20 uM incubated for 48 hrs by caspase-Glo 3/7 reagent based luminescence assay; type: functional, cell-based

COc1cc2c3c(c1OC)Oc1ccc(cc1)C[C@@H]1c4c(cc(OC)c(OC)c4Oc4ccc(cc4)C[C@H]3N(C)CC2)CCN1C
IC50 [1]: 35 µM
IC50 [2]: 7.6 µM
selectivity ratio [3]: 3
selectivity ratio [4]: 5
IC50 [5]: 14 µM
selectivity ratio [6]: 3
IC50 [7]: 10 µM
Drug uptake [8]: Not Active

COc1cc2c3c(c1OC)Oc1ccc(cc1)C[C@@H]1c4c(c(CN(C)C)c(OC)c(OC)c4Oc4ccc(cc4)C[C@H]3N(C)CC2)CCN1C
IC50 [1]: 10 µM
viability at 20 µM [9]: 51%
Activity [10]: Active
Activity [11]: Active
IC50 [2]: 3.6 µM
Activity [12]: Active
selectivity ratio [3]: 2
selectivity ratio [4]: 3
Activity [13]: 13%
Activity [14]: Active
Activity [15]: Active
IC50 [5]: 4.4 µM
selectivity ratio [6]: 2
Activity [16]: Active
IC50 [7]: 5.2 µM
Activity [17]: Active
Activity [18]: 25%
Activity [19]: Active
Activity [20]: Active

C#CCNCc1c2c3c(c(OC)c1OC)Oc1ccc(cc1)C[C@@H]1c4c(cc(OC)c(OC)c4Oc4ccc(cc4)C[C@H]3N(C)CC2)CCN1C
IC50 [1]: 32 µM
viability at 20 µM [9]: 50%
Activity [10]: Active
Activity [11]: Active
IC50 [2]: 6.3 µM
Activity [12]: Active
selectivity ratio [3]: 5
selectivity ratio [4]: 5
Activity [13]: 11%
Activity [14]: Active
Activity [15]: Active
IC50 [5]: 6.1 µM
selectivity ratio [6]: 6
Activity [16]: Active
IC50 [7]: 5.6 µM
Activity [17]: Active
Activity [18]: 38%
Activity [19]: Active
Drug uptake [8]: Active
Activity [20]: Active
